What follows are molecules tested on PKC mediated IL-2 production (assay: IL-2 ELISA, human primary T cell, anti CD3+CD28+). Details: Homo sapiens, T-cell, 24 h, human primary T cells stimulated with αCD3 and αCD28, 24 hours.
Type: cell-based
Outline: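 IL-2 was quantified by ELISA in 24 h supernatants from primary human T cells given a 1 h compound pre-treatment at 37° C. These cells had been expanded from blood mononuclear cells on αCD3/αCD28 with IL-2, and the IL-2 was removed by washing. Stimulation used plate-bound αCD3 ([…]) plus αCD28 (5 μg/ml); the counter assay used PMA (0.5 ng/ml) with ionomycin (0.1 uM) instead.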

EC50 [nM] | Structure (SMILES)
100 to 500 | COc1ccc(Nc2ncc(F)c(N[C@@H]3C[C@@H]4CCCN4C(C)(C)C3)n2)cc1-n1nnn(C2COC2)c1=O [Compound 285, 1-(5-(4-((7R,8aS)-octahydro-5,5-dimethylindolizin-7-ylamino)-5-fluoropyrimidin-2-ylamino)-2-methoxyphenyl)-4-(oxetan-3-yl)-1H-tetrazol-5(4H)-one]
1000 to 10000 | CC(=O)O[C@H]1[C@H](OC(C)=O)C(Oc2cc(F)c(Nc3ncc(F)c(N[C@@H]4C[C@@H]5CCCN5C(C)(C)C4)n3)cc2-n2nnn(C)c2=O)OC[C@H]1OC(C)=O (stereo partly drawn) [Compound 191, (3S,4R,5R)-2-(4-((4-(((7R,8aS)-5,5-dimethyloctahydroindolizin-7-yl)amino)-5-fluoropyrimidin-2-yl)amino)-5-fluoro-2-(4-methyl-5-oxo-4,5-dihydro-1H-tetrazol-1-yl)phenoxy)tetrahydro-2H-pyran-3,4,5-triyl triacetate]
100 to 500 | Cn1nnn(-c2cc(Nc3ncc(F)c(N[C@@H]4C[C@@H]5CCCN5C(C)(C)C4)n3)c(F)cc2OC(C)(C)CO)c1=O [Compound 85, 1-(2-(1-hydroxy-2-methylpropan-2-yloxy)-5-(4-((7R,8aS)-octahydro-5,5-dimethylindolizin-7-ylamino)-5-fluoropyrimidin-2-ylamino)-4-fluorophenyl)-4-methyl-1H-tetrazol-5(4H)-one]
100 to 500 | Cn1nnn(-c2cc(Nc3ncc(F)c(N[C@@H]4C[C@@H]5C[C@H](F)CN5C(C)(C)C4)n3)c(F)cc2C2CC2)c1=O [Compound 67, 1-(5-(4-((2S,7R,8aR)-2-fluoro-octahydro-5,5-dimethylindolizin-7-ylamino)-5-fluoropyrimidin-2-ylamino)-2-cyclopropyl-4-fluorophenyl)-4-methyl-1H-tetrazol-5(4H)-one]
< 100 | CC1(C)C[C@H](Nc2nc(Nc3ccc(OCCO)c(-n4nnnc4C4CC4)c3)ncc2F)C[C@@H]2CCCN21 [Compound 129, 2-(2-(5-cyclopropyl-1H-tetrazol-1-yl)-4-((4-(((7R,8aS)-5,5-dimethyloctahydroindolizin-7-yl)amino)-5-fluoropyrimidin-2-yl)amino)phenoxy)ethan-1-ol]
100 to 500 | CO[C@@H](C)COc1cc(F)c(Nc2ncc(F)c(N[C@@H]3C[C@@H]4CCCN4C(C)(C)C3)n2)cc1-n1nnn(C)c1=O [Compound 233, 1-(5-((4-(((7R,8aS)-5,5-dimethyloctahydroindolizin-7-yl)amino)-5-fluoropyrimidin-2-yl)amino)-4-fluoro-2-((S)-2-methoxypropoxy)phenyl)-4-methyl-1,4-dihydro-5H-tetrazol-5-one]
100 to 500 | CN(C)CCOc1cc(F)c(N(CCN(C)C)c2ncc(F)c(N[C@@H]3C[C@@H]4CCCN4C(C)(C)C3)n2)cc1-n1nnn(C)c1=O [Compound 193, 1-(2-(2-(dimethylamino)ethoxy)-5-((2-(dimethylamino)ethyl)(4-(((7R,8aS)-5,5-dimethyloctahydroindolizin-7-yl)amino)-5-fluoropyrimidin-2-yl)amino)-4-fluorophenyl)-4-methyl-1,4-dihydro-5H-tetrazol-5-one]
100 to 500 | COc1ccc(Nc2ncc(F)c(N[C@@H]3C[C@@H]4CCCN4C(C)(C)C3)n2)cc1-n1nnn(CC(C)(C)O)c1=O [Compound 290, 1-(5-(4-((7R,8aS)-octahydro-5,5-dimethylindolizin-7-ylamino)-5-fluoropyrimidin-2-ylamino)-2-methoxyphenyl)-4-(2-hydroxy-2-methylpropyl)-1H-tetrazol-5(4H)-one]
> 10000 | COc1cc(Nc2ncc(F)c(N[C@@H]3C[C@@H]4CCCN4C(C)(C)C3)n2)ccc1OCCO [Compound 216, 2-(4-((4-(((7R,8aS)-5,5-dimethyloctahydroindolizin-7-yl)amino)-5-fluoropyrimidin-2-yl)amino)-2-methoxyphenoxy)ethan-1-ol]
100 to 500 | CC1(C)C[C@H](Nc2nc(Nc3ccc(N4CCN(C5COC5)CC4)c(C#N)c3)ncc2F)C[C@@H]2CCCN21 [Compound 116]
< 100 | Cc1ccc(Nc2ncc(Cl)c(N[C@@H]3C[C@@H]4CCCN4C(C)(C)C3)n2)cc1-n1cnnn1 [Compound 147, 5-chloro-N4-((7R,8aS)-5,5-dimethyloctahydroindolizin-7-yl)-N2-(4-methyl-3-(1H-tetrazol-1-yl)phenyl)pyrimidine-2,4-diamine]
> 10000 | Cc1ccc(Nc2ncc(F)c(N[C@@H]3C[C@@H]4CCCN4C(C)(C)C3)n2)cc1-n1nnnc1S(C)(=O)=O [Compound 286, 5-fluoro-N4-((7R,8aS)-octahydro-5,5-dimethylindolizin-7-yl)-N2-(4-methyl-3-(5-(methylsulfonyl)-1H-tetrazol-1-yl)phenyl)pyrimidine-2,4-diamine]

Second part, the molecule before the results:

Structure (SMILES) | EC50 [nM]
C[C@@H](O)COc1cc(F)c(Nc2ncc(C#N)c(N[C@@H]3C[C@@H]4CCCN4C(C)(C)C3)n2)cc1-n1nnn(C)c1=O [Compound 314, 4-((7R,8aS)-octahydro-5,5-dimethylindolizin-7-ylamino)-2-(4-((R)-2-hydroxypropoxy)-2-fluoro-5-(4,5-dihydro-4-methyl-5-oxotetrazol-1-yl)phenylamino)pyrimidine-5-carbonitrile] | 100 to 500
CC1(C)Oc2ccc(Nc3ncc(F)c(N[C@@H]4C[C@@H]5CCCN5C(C)(C)C4)n3)cc2-n2c1nn(CCO)c2=O [Compound 268, 5-fluoro-N2-(1H-2,4-dihydron-2-(2-hydroxyethyl)-4,4-dimethyl-[1,2,4]triazolo[3,4-c][1,4]benzoxazin-1-one-8-yl)-N4-((7R,8aS)-octahydro-5,5-dimethylindolizin-7-yl)pyrimidine-2,4-diamine] | 1000 to 10000
CC1(C)CC[C@H]2C[C@@H](Nc3nc(Nc4ccc(OC5CC(O)C5)c(C(F)(F)F)c4)ncc3F)CCN21 (stereo partly drawn) [Compound 305, 3-(4-((4-(((7S,8aS)-3,3-Dimethyloctahydroindolizin-7-yl)amino)-5-fluoropyrimidin-2-yl)amino)-2-(trifluoromethyl)phenoxy)cyclobutan-1-ol] | 100 to 500
CC1(C)C[C@H](Nc2nc(Nc3ccc(N4CCC5(CC4)COC5)c(C#N)c3)ncc2F)C[C@@H]2CCCN21 [Compound 100, 5-(4-((7R,8aS)-5,5-dimethyloctahydroindolizin-7-ylamino)-5-fluoropyrimidin-2-ylamino)-2-(2-oxa-7-azaspiro[3.5]nonan-7-yl)benzonitrile] | 100 to 500
Cn1nc2n(c1=O)-c1cc(Nc3ncc(F)c(N[C@@H]4C[C@@H]5CCCN5C(C)(C)C4)n3)ccc1OC2(C)C [Compound 248, 5-fluoro-N2-(1H-2,4-dihydron-2,4,4-trimethyl-[1,2,4]triazolo[3,4-c][1,4]benzoxazin-1-one-8-yl)-N4-((7R,8aS)-octahydro-5,5-dimethylindolizin-7-yl)pyrimidine-2,4-diamine] | 100 to 500
CC1(C)CC[C@H]2C[C@@H](Nc3nc(Nc4ccc(N5CCOCC5)c(OC(F)F)c4)ncc3F)CCN21 [Compound 297] | 100 to 500
COc1cc(Nc2ncc(F)c(N[C@@H]3C[C@@H]4CCCN4C(C)(C)C3)n2)cc(OC)c1OC [Compound 156, N4-((7R,8aS)-5,5-dimethyloctahydroindolizin-7-yl)-5-fluoro-N2-(3,4,5-trimethoxyphenyl)pyrimidine-2,4-diamine] | 1000 to 10000
Cn1nnn(-c2cc(Nc3ncc(F)c(N[C@@H]4C[C@@H]5CCCN5C(C)(C)C4)n3)c(F)cc2OC2CC(OCc3ccccc3)C2)c1=O (stereo partly drawn) [Compound 225, 1-(2-(3-(benzyloxy)cyclobutoxy)-5-((4-(((7R,8aS)-5,5-dimethyloctahydroindolizin-7-yl)amino)-5-fluoropyrimidin-2-yl)amino)-4-fluorophenyl)-4-methyl-1,4-dihydro-5H-tetrazol-5-one] | 100 to 500
C[C@H](CO)COc1cc(F)c(Nc2ncc(F)c(N[C@@H]3C[C@@H]4CCCN4C(C)(C)C3)n2)cc1-n1nnn(C)c1=O [Compound 222, 1-(5-((4-(((7R,8aS)-5,5-dimethyloctahydroindolizin-7-yl)amino)-5-fluoropyrimidin-2-yl)amino)-4-fluoro-2-((R)-3-hydroxy-2-methylpropoxy)phenyl)-4-methyl-1,4-dihydro-5H-tetrazol-5-one] | 100 to 500
CC1(C)C[C@H](Nc2nc(Nc3ccc(OCC4COCCO4)c(C#N)c3)ncc2F)C[C@@H]2CCCN21 (stereo partly drawn) [Compound 177, 2-((1,4-dioxan-2-yl)methoxy)-5-(4-((7R,8aS)-5,5-dimethyloctahydroindolizin-7-ylamino)-5-fluoropyrimidin-2-ylamino)benzonitrile] | 100 to 500

Same assay, conditions: human primary T cells stimulated with αCD3 and αCD28, 24 hours

Structure (SMILES) | EC50 [nM]
C[C@@H](O)COc1cc(F)c(Nc2ncc(F)c(N[C@@H]3C[C@@H]4CCCN4C(C)(C)C3)n2)cc1-n1nnn(C)c1=O [Compound 82] | < 100
Cn1nnn(-c2cc(Nc3ncc(F)c(N[C@@H]4C[C@@H]5CCCN5C(C)(C)C4)n3)c(F)cc2OCCN)c1=O [Compound 231, 1-(2-(2-aminoethoxy)-5-((4-(((7R,8aS)-5,5-dimethyloctahydroindolizin-7-yl)amino)-5-fluoropyrimidin-2-yl)amino)-4-fluorophenyl)-4-methyl-1,4-dihydro-5H-tetrazol-5-one] | 500 to 1000
[2H]C([2H])(O)C([2H])([2H])Oc1ccc(Nc2ncc(F)c(N[C@@H]3C[C@@H]4CCCN4C(C)(C)C3)n2)cc1C#N [Compound 219, 5-((4-(((7R,8aS)-5,5-dimethyloctahydroindolizin-7-yl)amino)-5-fluoropyrimidin-2-yl)amino)-2-(2-hydroxyethoxy-1,1,2,2-d4)benzonitrile] | 100 to 500
CC1(C)Oc2ccc(Nc3ncc(F)c(N[C@H]4C[C@@H]5CCCN5C(C)(C)C4)n3)cc2-n2nnnc21 (single isomer, unassigned) [Compound 3, N2-(4,4-dimethyl-4H-benzo[b]tetrazolo[1,5-d][1,4]oxazin-8-yl)-5-fluoro-N4-(octahydro-5,5-dimethylindolizin-7-amine)pyrimidine-2,4-diamine] | 500 to 1000

Source: US9682976B2, “Protein kinase C inhibitors and uses thereof” (Rigel Pharmaceuticals, Inc., priority 2012, dated 2017)
